# Reference: patent US5935954A, “Compounds with improved multi-drug resistance activity” (Vertex Pharmaceuticals Incorporated, priority 1997, dated 1999)
# Target: FKBP12 (Homo sapiens, UniProt P62942)
# Assay: FKBP12 binding assay (inhibition of rotomase activity)
# Assay type: biochemical
# Conditions: apparent Ki
# Source text: Preferably, the assay measures inhibition of FKBP12 rotomase activity. Such an assay has also been described by M. W. Harding et al., supra and by J. J. Siekierka et al., supra. In this assay the isomerization of an artificial substrate--N-succinyl-Ala-Ala-Pro-Phe-p-nitroanilide--is followed spectrophotometrically. The assay includes the cis form of the substrate, FKBP12, the inhibitor and chymotrypsin. Chymotrypsin is able to cleave p-nitroanilide from the trans form of the substrate, but not the cis form. Release of p-nitroanilide is measured.
# The inhibition of FKBP rotomase activity by the preferred FKBP12 binding compounds present in the compositions of this invention was assayed. In this assay various quantities of FKBP12 binding compound (0nM-10 μM) were added to cis-N-succinyl-Ala-Ala-Pro-Phe-p-nitroanilide in the presence of FKBP12 and chymotrypsin. FKBP12 converts the cis form of the substrate to the trans form. This allows chymotrypsin to cleave p-nitroanilide from the substrate. Release of p-nitroanilide was measured spectrophotometrically. This assay allowed me to measure the change in the first order rate constant of the rotomase activity as a function of FKBP12 binding compound concentration and yielded an estimate of apparent Ki.
# Chain of FKBP12 (P62942 whole entry, species assumed): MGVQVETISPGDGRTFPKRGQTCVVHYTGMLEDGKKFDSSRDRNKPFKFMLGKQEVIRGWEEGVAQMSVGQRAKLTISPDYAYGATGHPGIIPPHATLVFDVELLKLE
row,Ki [nM],Structure (SMILES)
1,44,COC/C=C(\c1cncc([C@@H](CCN2CCOCC2)OC(=O)[C@@H]2CCCCN2C(=O)C(=O)C(C)(C)C(C)C)c1)C(C)C [Compound 115]
2,130,COC/C=C(\c1cncc([C@H](CCN2CCOCC2)OC(=O)[C@@H]2CCCCN2C(=O)C(=O)C(C)(C)C(C)C)c1)C(C)C [Compound 116]
3,150,CCC/C(=C/COC)c1cncc([C@@H](CCN2CCOCC2)OC(=O)[C@@H]2CCCCN2C(=O)C(=O)[C@@H]2CCCC[C@H]2C)c1 [Compound 117]
4,70,COC/C=C(\c1cncc([C@@H](CCN2CCOCC2)OC(=O)[C@@H]2CCCCN2C(=O)C(=O)[C@@H]2CCCC[C@H]2C)c1)C(C)C [Compound 118]
5,80,CCCCc1ccc(C)n1-c1cccc([C@@H](CCN2CCOCC2)OC(=O)[C@@H]2CCCCN2C(=O)C(=O)[C@@H]2CCCC[C@H]2C)c1 [Compound 120]
6,85,CCCCc1ccc(C)n1-c1cccc([C@@H](CCN2CCOCC2)OC(=O)[C@@H]2CCCCN2C(=O)C(=O)[C@@H]2C[C@H](OCC)CC[C@H]2C)c1 [Compound 121]
7,32,CCCCc1ccc(C)n1-c1cccc([C@@H](CCN2CCOCC2)OC(=O)[C@@H]2CCCCN2C(=O)C(=O)C(C)(C)C(C)C)c1 [Compound 122]
8,1000,COC/C=C(\c1cncc([C@@H](CCN2CCOCC2)OC(=O)[C@@H]2CCCCN2C(=O)C(=O)[C@@H]2C[C@H](C(C)(C)OC)CC[C@H]2C)c1)C(C)C [Compound 124]
9,1100,CCC/C(=C/COC)c1cncc(C(CCN2CCOCC2)OC(=O)[C@@H]2CCCCN2C(=O)C(=O)[C@@H]2C[C@H](OCC)CC[C@H]2C)c1 (some centres unmarked) [Compound 125]
10,3000,CCCCc1ccc(C)n1-c1cccc([C@@H](CCN2CCOCC2)OC(=O)[C@@H]2CCCCN2C(=O)C(=O)[C@@H]2C[C@H](C(C)C)CC[C@H]2C)c1 [Compound 126]
11,19,CCO[C@@H]1CC[C@@H](C)[C@H](C(=O)C(=O)N2CCCC[C@H]2C(=O)O[C@H](CCN2CCOCC2)c2cccc(-n3c(C)ccc3C)c2)C1 [Compound 127]
12,41,CCC/C=C(\c1cncc([C@@H](CCN2CCOCC2)OC(=O)[C@@H]2CCCCN2C(=O)C(=O)[C@@H]2CCCC[C@H]2C)c1)C(C)C [Compound 128]
13,1200,CCC/C=C(\c1cncc([C@@H](CCN2CCOCC2)OC(=O)[C@@H]2CCCCN2C(=O)C(=O)[C@@H]2C[C@H](C(C)(C)OC)CC[C@H]2C)c1)C(C)C [Compound 129]
14,490,CCC/C=C(\c1cncc([C@@H](CCN2CCOCC2)OC(=O)[C@@H]2CCCCN2C(=O)C(=O)[C@@H]2C[C@H](OCC)CC[C@H]2C)c1)C(C)C [Compound 130]
15,90,CCC/C(=C/COC)c1cncc(C(OC(=O)[C@@H]2CCCCN2C(=O)C(=O)[C@@H]2CCCC[C@H]2C)/C(C)=C/C2CCOCC2)c1 (some centres unmarked) [Compound 131]
16,> 10000,CCC/C=C(\c1cncc([C@@H](CCN2CCOCC2)OC(=O)[C@@H]2CCCCN2C(=O)C(=O)[C@@H]2C[C@@H](OCC)CN2C(C)=O)c1)C(C)C [Compound 132]
17,315,CCC/C=C(/C)c1cncc([C@@H](CCN2CCOCC2)OC(=O)[C@@H]2CCCCN2C(=O)C(=O)[C@@H]2C[C@H](C(C)(C)OC)CC[C@H]2C)c1 [Compound 133]

# The remaining lines, values behind:
row,Structure (SMILES),Ki [nM]
1,CCOCc1cccc(COCC)c1-c1cncc(C(OC(=O)[C@@H]2CCCCN2C(=O)C(=O)C(C)(C)C)/C(C)=C/c2ccncc2)c1 (some centres unmarked) [Compound 67],270
2,CCOCc1cccc(COCC)c1-c1cncc(C(OC(=O)[C@@H]2CCCCN2C(=O)C(=O)C2CCOCC2)/C(C)=C/c2ccncc2)c1 (some centres unmarked) [Compound 68],> 5000
3,C=CCC/C=C(\c1ccc([C@H](CCN2CCOCC2)OC(=O)[C@@H]2CCCCN2C(=O)C(=O)CC(C)C)s1)C1CCOCC1 [Compound 69],745
4,C=CCC/C=C(\c1ccc([C@@H](CCN2CCOCC2)OC(=O)[C@@H]2CCCCN2C(=O)C(=O)C(C)(C)C)s1)C1CCOCC1 [Compound 70],45
5,C=CCC/C=C(/c1cccnc1)c1ccc([C@@H](OC(=O)[C@@H]2CCCCN2C(=O)C(=O)CC(C)C)/C(C)=C/C2CCN(C)CC2)s1 [Compound 71],364
6,C=CCC/C=C(/c1cccnc1)c1ccc([C@H](OC(=O)[C@@H]2CCCCN2C(=O)C(=O)CC(C)C)/C(C)=C/C2CCN(C)CC2)s1 [Compound 72],225
7,CCOCc1cccc(COCC)c1-c1cncc([C@@H](CCN2CCOCC2)OC(=O)[C@@H]2CCCCN2C(=O)C(=O)CC(C)C)c1 [Compound 73],718
8,CCCC/C=C(\c1cncc([C@@H](OC(=O)[C@@H]2CCCCN2C(=O)C(=O)C(C)C)/C(C)=C/C2CCN(C)CC2)c1)C1CCCCC1 [Compound 74],500
9,CCCC/C=C(\c1cncc([C@H](OC(=O)[C@@H]2CCCCN2C(=O)C(=O)C(C)C)/C(C)=C/C2CCN(C)CC2)c1)C1CCCCC1 [Compound 75],188
10,CCOCc1cccc(COCC)c1-c1cncc([C@H](CCN2CCOCC2)OC(=O)[C@@H]2CCCCN2C(=O)C(=O)CC(C)C)c1 [Compound 77],2100
11,CCOCc1cccc(COCC)c1-c1cncc([C@@H](CCN2CCOCC2)OC(=O)[C@@H]2CCCCN2C(=O)C(=O)C2(C)CCCCC2)c1 [Compound 78],77
12,CCOCc1cccc(COCC)c1-c1cncc([C@H](CCN2CCOCC2)OC(=O)[C@@H]2CCCCN2C(=O)C(=O)C2(C)CCCCC2)c1 [Compound 80],230
13,CCOCc1cccc(COCC)c1-c1cncc([C@@H](CCN2CCOCC2)OC(=O)[C@@H]2CCCCN2C(=O)C(=O)C(C)(C)C)c1 [Compound 81],189
14,CCOCc1cccc(COCC)c1-c1ccc([C@@H](CCN2CCOCC2)OC(=O)[C@@H]2CCCCN2C(=O)C(=O)CC(C)C)s1 [Compound 83],315
15,CCOCc1cccc(COCC)c1-c1ccc([C@H](CCN2CCOCC2)OC(=O)[C@@H]2CCCCN2C(=O)C(=O)CC(C)C)s1 [Compound 84],2000
16,C=CCC/C=C(/c1cccnc1)c1ccc([C@@H](CCN2CCOCC2)OC(=O)[C@@H]2CCCCN2C(=O)C(=O)C2(C)CCCCC2)s1 [Compound 85],1
17,CCOCc1cc2ccccc2n1-c1cccc([C@@H](CCN2CCOCC2)OC(=O)[C@@H]2CCCCN2C(=O)C(=O)C2(C)CCCCC2)c1 [Compound 86],14

row,Structure (SMILES),Ki [nM]
1,C=CCC/C=C(\c1ccc([C@H](CCN2CCOCC2)OC(=O)[C@@H]2CCCCN2C(=O)C(=O)C2(C)CCCCC2)s1)C1CCOCC1 [Compound 87],2.3
2,CCOc1ccc(OCC)c(-c2cncc([C@H](CCCc3ccccc3)OC(=O)[C@@H]3CCCCN3C(=O)C(=O)c3cc(OC)c(OC)c(OC)c3)c2)c1 [Compound 88],64
3,CCC/C=C(/c1cccnc1)c1cccc(C(CCN2CCOCC2)OC(=O)[C@@H]2CCCCN2C(=O)C(=O)C(C)(C)C(C)C)c1 (some centres unmarked) [Compound 92],32
4,CCOCc1cccc(COCC)c1-c1ccc([C@@H](CCN2CCOCC2)OC(=O)[C@@H]2CCCCN2C(=O)C(=O)C(C)(C)C(C)C)s1 [Compound 93],44
5,CCOCc1cc2ccccc2n1-c1cccc([C@@H](CCN2CCOCC2)OC(=O)[C@@H]2CCCCN2C(=O)C(=O)C(C)(C)C(C)C)c1 [Compound 94],16
6,C=CCC/C=C(\c1ccc([C@@H](CCN2CCOCC2)OC(=O)[C@@H]2CCCCN2C(=O)C(=O)C2(O)CCCCC2)s1)C1CCOCC1 [Compound 95],14
7,C=CCC/C=C(/c1cccnc1)c1ccc([C@@H](CCN2CCOCC2)OC(=O)[C@@H]2CCCCN2C(=O)C(=O)C2(C)CCCCC2)s1 [Compound 96],28
8,CCC/C=C(\c1cncc([C@H](OC(=O)[C@@H]2CCCCN2C(=O)C(=O)C(C)(C)C(C)C)/C(C)=C/c2ccncc2)c1)C1CCCCC1 [Compound 98],62
9,C=CCC/C=C(/c1cccnc1)c1ccc([C@H](CCN2CCOCC2)OC(=O)[C@@H]2CCCCN2C(=O)C(=O)c2cc(COC)ccc2C)s1 [Compound 101],500
10,CCOCc1cccc(COCC)c1-c1ccc([C@@H](CCN2CCOCC2)OC(=O)[C@@H]2CCCCN2C(=O)C(=O)c2cc(COC)ccc2C)s1 [Compound 102],700
11,CCCc1ccc(CCC)n1-c1cccc([C@@H](CCN2CCOCC2)OC(=O)[C@@H]2CCCCN2C(=O)C(=O)C(C)(C)C(C)C)c1 [Compound 103],21
12,CCCc1ccc(CCC)n1-c1cccc([C@H](CCN2CCOCC2)OC(=O)[C@@H]2CCCCN2C(=O)C(=O)C(C)(C)C(C)C)c1 [Compound 104],870
13,CCCc1ccc(CCC)n1-c1cccc([C@H](OC(=O)[C@@H]2CCCCN2C(=O)C(=O)C(C)(C)C(C)C)/C(C)=C/c2ccncc2)c1 [Compound 106],2100
14,CCCc1ccc(CCC)n1-c1cccc(C(OC(=O)[C@@H]2CCCCN2C(=O)C(=O)[C@@H]2CCCC[C@H]2C)/C(C)=C/c2ccncc2)c1 (some centres unmarked) [Compound 108],5100
15,CCCc1ccc(CCC)n1-c1cccc(C(OC(=O)[C@@H]2CCCCN2C(=O)C(=O)C(C)(C)C(C)C)/C(C)=C/c2ccncc2)c1 (some centres unmarked) [Compound 109],> 10000
16,CCC/C(=C/COC)c1cncc([C@H](CCN2CCOCC2)OC(=O)[C@@H]2CCCCN2C(=O)C(=O)C(C)(C)C(C)C)c1 [Compound 114],172
